Data from US20240207380A1, “NOVEL PEPTIDE TARGETING DENDRITIC CELLS, AND COMPOSITION FOR TREATING CANCER COMPRISING SAME” (INDUSTRY FOUNDATION OF CHONNAM NATIONAL UNIVERSITY, priority 2021, published 2024).
“Also recorded” adds a separate entry of the source. Ends that are not written are not given here. * marks the point of attachment. Biotin = O=C1N[C@H]2[C@H](CS[C@H]2CCCCC(=O)*)N1

B1: FlaB: flagellin B (FlaB) derived from Vibrio vulnificus, SEQ ID NO: 23 (protein)
chain: MAVNVNTNVAAMTAQRYLNNANSAQQTSMERLSSGFKINSAKDDAAGLQISNRLNVQSRGLDVAVRNANDGISIAQTAEGAMNETTNILQRMRDLSLQSANGSNSKSERVAIQEEVTALNDELNRIAETTSFGGNKLLNGTYGTKAMQIGADNGEAVMLSLKDMRSDNVMMGGVSYQAEEGKDKNWNVAAGDNDLTIALTDSFGNEQEIEINAKAGDDIEELATYINGQTDLVKASVGEGGKLQIFAGNNKVQGEIAFSGSLAGELGLGEGKNVTVDTIDVTTVQGAQESVAIVDAALKYVDSHRAELGAFQNRFNHAISNLDNINENVNASKSRIKDTDFAKETTQLTKTQILSQASSSILAQAKQAPNSALSLLG
modifications: FlaB (F)
B2: EF: recombinant fusion of four copies of E7ΔNLS and FlaB, SEQ ID NO: 24 (protein)
chain: MIDGPAGQAEPDRAHYNIVTFCCKCDSTLRLCVQSTHVDIRTLEDLLMGTLGIVCPICSQKPEFIDGPAGQAEPDRAHYNIVTFCCKCDSTLRLCVQSTHVDIRTLEDLLMGTLGIVCPICSQKPVDIDGPAGQAEPDRAHYNIVTFCCKCDSTLRLCVQSTHVDIRTLEDLLMGTLGIVCPICSQKPVDIDGPAGQAEPDRAHYNIVTFCCKCDSTLRLCVQSTHVDIRTLEDLLMGTLGIVCPICSQKPKLMAVNVNTNVAAMTAQRYLNNANSAQQTSMERLSSGFKINSAKDDAAGLQISNRLNVQSRGLDVAVRNANDGISIAQTAEGAMNETTNILQRMRDLSLQSANGSNSKSERVAIQEEVTALNDELNRIAETTSFGGNKLLNGTYGTKAMQIGADNGEAVMLSLKDMRSDNVMMGGVSYQAEEGKDKNWNVAAGDNDLTIALTDSFGNEQEIEINAKAGDDIEELATYINGQTDLVKASVGEGGKLQIFAGNNKVQGEIAFSGSLAGELGLGEGKNVTVDTIDVTTVQGAQESVAIVDAALKYVDSHRAELGAFQNRFNHAISNLDNINENVNASKSRIKDTDFAKETTQLTKTQILSQASSSILAQAKQAPNSALSLLGLEHHHHHH
modifications: 4xE7deltaNLS::FlaB (EF)

Columns and labels:
[1] = tested on: CD11c^+ cells from cervical lymph nodes; experiment: In vivo dendritic cell targeting after intranasal administration; set-up: species or system BALB/c mice; conditions: 6.5 hours post-inoculation, compared to scrambled-peptide negative control
Experimental: The peptide at appropriate concentrations in a total volume of 10 μl/nostril was given intranasally to BALB/c mice. A scrambled peptide previously shown to be nonspecific to DCs was used as a negative control. At 6.5 hours post-inoculation, mice were sacrificed, and their cLNs were harvested. Single-cell suspensions were prepared by gently tearing the LN capsule. After gentle washing in 1×PBS, cells were stained with anti-mouse CD11c^+ APC-conjugated Ab (eBioscience, Clone: N418, 170114-82) and streptavidin-AF488, and FACS analysis was performed.

[2] = tested on: cervical lymph node cells, splenic dendritic cells, and bone marrow-derived dendritic cell; experiment: Cellular uptake of DC-targeting peptides in lymph node cells, splenic DCs and BMDCs (FACS); assay type: cell-based, mice; conditions: biotinylated peptides, 2 hours, FACS gated on CD11c+
Experimental: (§1) Bone marrow (BM) cells were isolated by flushing femurs and tibias of C57BL/6 mice, and red blood cells (RBCs) were depleted by ACK lysis (Gibco, A10492-01). The cells were centrifuged and strained through a 70 μm filter before being resuspended in RPMI 1640 supplemented with 10% heat-inactivated FBS, 100 units/ml penicillin, and 100 μg/ml streptomycin. The cells were resuspended in complete RPMI 1640 culture medium containing GM-CSF (10 ng/ml; R&D Systems, 415-ML-010) and IL4 (10 ng/ml; R&D Systems, 415-ML-010), inoculated into a cell culture dish, and cultured at 37° C. and 5% CO2. The culture medium was refreshed every two days. On day 7 or 8, DCs loosely bound to the bottom were collected by gentle pipetting. Splenic DCs were prepared by CD11c+ MicroBeads MACS (Miltenyi Biotec, 130-052-001) following the manufacturer's instructions.
(§2) Peptides were synthesized using […] chemistry, purified using high-pressure liquid chromatography to more than 95% purity, and biotinylated in the side chain (AnyGen Inc., South Korea). Peptides were dissolved in appropriate solvents according to the manufacturer's instructions to a concentration of 0.5 mg/ml. To test CD11c^+ cell targeting by the synthesized peptides, cLNs, splenic DCs, and BMDCs were treated with the 6 peptides for 2 hours in RPMI 1640 medium. After incubation with peptides, the cells were harvested, washed and stained with anti-mouse CD11c^+ APC-conjugated Ab (eBioscience, Clone: N418, 170114-82) and streptavidin-AF488. Cells were FACS analyzed by gating upon the CD11c^+ cell population, and the results are depicted in FIGS. 6 and 7.

CD11c^+-BMDC = experiment: Cellular uptake of DC-targeting peptides by bone marrow-derived dendritic cells (FACS); assay type: cell-based, C57BL/6 mice; conditions: biotinylated peptides, 2 hours in RPMI 1640, FACS gated on CD11c+, compared with negative control
Experimental: as §1, §2

TC-1 cells = experiment: Efficacy of E7ΔNLS as tumor antigen in TC-1 tumor-bearing mice; assay type: in vivo, C57BL/6 mice; conditions: peritumoral injection three times at intervals of five days; 4 μg FlaB, 10 μg E7FL, 8 μg E7ΔNLS alone or combined
Experimental: Female SPF C57BL/6 mice 7 to 8 weeks old were purchased from ORIENT (Seongnam-si, Gyeonggi-do, Korea). TC-1 cells were cultured in RPMI 1640 medium supplemented with 10% heat-inactivated FIBS, 100 units/ml penicillin, and 100 μg/ml streptomycin at 37° C. under 5% CO2. Tumors were established in mice by subcutaneous injection of 5×10^4 TC-1 cells in 100 μl of PBS into the right mid-flank of each mouse. […] Tumor growth was monitored every three days. The tumor volume was calculated with formula V=(tumor length)×(tumor width)×(tumor height)/2.

TLR5 = target: T1, TLR5 (Homo sapiens, UniProt O60602); assay type: cell-based; conditions: HEK-Blue hTLR5 cells
T1 construct: host or cells: HEK-Blue hTLR5 cells (HEK293-derived reporter line, own knowledge: stably transfected with the human TLR5 gene and an NF-kB-inducible SEAP reporter)
Experimental: Also, the EC50 was calculated using triplicate OD 620 nm values for each protein concentration over a wide range of protein concentrations (0.0375 nM-19.29 nM at the AAT Bioquest website).

[3] = tested on: Bone marrow-derived dendritic cells (BMDCs); experiment: Antigen-presenting cell activation (CD80 and CD86 on BMDC surface); assay type: cell-based, C57BL/6 mice; conditions: 0.5 μg/ml, 24 hours
From the text: The cells were stained on ice with fluorophore-labeled antibodies before flow cytometry analysis.

[4] = tested on: Bone marrow-derived dendritic cells (BMDCs); experiment: Cellular uptake of EF and DEF in BMDCs (flow cytometry); assay type: cell-based, C57BL/6 mice; conditions: 2 hours, anti-FlaB staining, FACS gated on CD11c+
Experimental: Cells treated with PBS alone were used as a negative control. After incubation, the cells were washed twice with cold 1×PBS containing 3% FBS and then stained with anti-mouse CD11c^+ antibody (eBioscience, Clone: N418, 25-0114-82) for 1 hour at 4° C. and fixed with 4% paraformaldehyde (T&I, BPP-9004) for 10 minutes at room temperature. The cells were permeabilized using a permeabilization kit according to the manufacturer's instructions (Invitrogen, 00-8333-56) and stained with anti-FlaB antibodies, followed by FACS analysis by gating upon the CD11c^+ population. The results are depicted in FIG. 14.

T1 sequence (O60602 21-858): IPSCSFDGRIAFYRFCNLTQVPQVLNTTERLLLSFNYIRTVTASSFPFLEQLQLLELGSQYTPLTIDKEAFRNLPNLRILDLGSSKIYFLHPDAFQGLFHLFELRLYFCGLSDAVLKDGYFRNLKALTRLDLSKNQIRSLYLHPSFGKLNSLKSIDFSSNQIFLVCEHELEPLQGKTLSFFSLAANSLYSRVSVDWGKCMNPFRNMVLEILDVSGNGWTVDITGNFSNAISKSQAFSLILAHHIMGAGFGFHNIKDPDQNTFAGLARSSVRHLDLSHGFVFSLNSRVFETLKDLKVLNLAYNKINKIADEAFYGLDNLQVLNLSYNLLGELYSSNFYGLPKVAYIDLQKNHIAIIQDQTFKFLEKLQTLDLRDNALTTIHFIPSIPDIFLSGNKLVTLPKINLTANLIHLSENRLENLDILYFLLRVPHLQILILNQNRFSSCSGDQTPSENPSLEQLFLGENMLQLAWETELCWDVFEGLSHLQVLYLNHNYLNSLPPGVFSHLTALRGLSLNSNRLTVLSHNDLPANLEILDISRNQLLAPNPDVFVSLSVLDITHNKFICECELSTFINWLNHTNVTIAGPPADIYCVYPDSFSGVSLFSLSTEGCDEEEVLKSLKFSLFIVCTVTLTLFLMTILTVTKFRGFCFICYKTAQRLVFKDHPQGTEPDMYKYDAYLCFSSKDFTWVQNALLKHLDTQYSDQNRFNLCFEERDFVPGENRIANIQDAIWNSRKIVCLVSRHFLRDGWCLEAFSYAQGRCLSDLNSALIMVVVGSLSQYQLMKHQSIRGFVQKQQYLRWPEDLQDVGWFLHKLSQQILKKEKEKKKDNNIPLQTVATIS

Row | Molecule | cellular uptake in cervical lymph node cells, splenic dendritic cells and BMDCs (FIG. 7) [2] | targeting ability / cellular uptake of the peptides by bone marrow-derived dendritic cells (FIG. 6) (CD11c^+-BMDC) | further results
1 | DCpep6: RFFCLGPLGFTKVD, SEQ ID NO: 6; dendritic cell-targeting peptide discovered by in vivo biopanning (peptide 6, and DCpep6) | remarkably higher specific signals | efficiently targeted; also recorded: remarkably higher efficiency | localization of peptide in cervical lymph node cells (FIG. 8) [1]: clearly localized in the cytoplasm of CD11c^+ cells; cellular uptake in cervical lymph node cells, splenic dendritic cells and BMDCs (FIG. 7) ([2]; listed as DCpep 6): increased cellular uptake
2 | DCpep 3: SPACLDLGLVPWKI, SEQ ID NO: 9; dendritic cell-targeting peptide, Arg replaced by Lys for biotinylation (SPACLDLGLVPWK(Biotin)I) | increased cellular uptake | efficiently targeted | 
3 | DCpep 4: VDLYPCYTFHSKVV, SEQ ID NO: 10; dendritic cell-targeting peptide, Arg replaced by Lys for biotinylation (VDLYPCYTFHSK(Biotin)VV; not fully specified) | increased cellular uptake | efficiently targeted | 
4 | B1 |  |  | tumor suppression (tumor volume, FIGS. 11 and 12) (TC-1 cells): did not manifest any suppressive effect
5 | B2 |  |  | NF-κB activity levels (FIG. 13) (TLR5): increased the activity in dose-dependent manners; expression of CD80 and CD86 on BMDC surface (FIG. 20) [3]: no statistical significance; cellular uptake in bone marrow-derived dendritic cells (FIG. 14) [4]: scarcely detected
